# Assay results as given in US9849135B2, “USP14 inhibitors for treating or preventing viral infections” (priority 2013, dated 2017).
# Read-outs that look alike come from different tables or passages of the source.
# Assays:
# DENV2 = type: cell-based, Dengue virus
# WNV (WNO2-1956) = type: cell-based, West Nile virus
# LACV (LAC74-32813) = type: cell-based, La Crosse virus
# [1] = tested on: DENV2 (New Guinea C strain); type: cell-based, Dengue virus; conditions: 100 μM IU1; preincubated cells
# [2] = tested on: yellow fever virus (YFV, 17D vaccine strain); type: cell-based
# CHIKV (LR2006-OPY1) = type: cell-based, Chikungunya virus
compound,measurement,setting,value
"Cc1cc(C(=O)CN2CCCC2)c(C)n1-c1ccc(F)cc1 [IU1, 1-(1-(4-fluorophenyl)-2,5-dimethyl-1H-pyrrol-3-yl)-2-(pyrrolidin-1-yl)ethanone]","titer, % of maximum","DENV2; 75 μM IU1, post-infection addition",37%
same,"titer, % of maximum","DENV2; 100 μM IU1, post-infection addition",0.5%
same,WNV titer reduction,WNV (WNO2-1956),3-5 fold
same,WNV titer versus without the drug,WNV (WNO2-1956),significantly higher
same,plaques in plaque assay (WNV),WNV (WNO2-1956),no plaques were observed
same,LACV replication reduction,LACV (LAC74-32813),3 fold
same,plaques in plaque assay,[1],No plaques were observed
same,YFV titer reduction,[2],3-5 fold
same,effect on CHIKV replication,CHIKV (LR2006-OPY1),negligible or non-existent
